Values of other authors, collected in PMC3807243 (Biochemical pharmacology, 2012).
Where two headings read alike, the source gives them in different places.

Test system: EphB4
Settings: ref [38]–[40]

IC50 (read-out: IC50 for inhibition of EphB4 binding) | Binding affinity for EphB4 | Sequence | IC50 (read-out: IC50 for inhibition of ephrin-B2 binding to EphB4)
 |  | TNYLFSPNGPIA | ~150 µM
~0.015 µM | low nanomolar | TNYLFSPNGPIARAW [TNYL-RAW] | 
